Where “and” joins values, the source holds several entries; their conditions need not be identical. Equal values may be shown once. Toxic doses and inconclusive results are not listed. No stated cut-off is given here; in the data, active means T/C of 150% or more; inactive means T/C below 125%.
Tested on: L1210 leukemia ip in BDF1 mice, survival T/C
Assay: NCI In Vivo Anticancer Drug Screen. Data for tumor model L1210 Leukemia (intraperitoneal) in B6D2F1 (BDF1) mice
Settings: endpoint: mean survival time, higher = longer survival
How it was run: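 Read-out is survival time, reported as the treated-group measurement over the vehicle-control measurement.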

[1] = dose: 100.0 mg/kg/injection, schedule: Q04DX003 (ip), vehicle: Klucel (hydroxypropylcellulose) (HPC)
[2] = dose: 200.0 mg/kg/injection, schedule: Q04DX003 (ip), vehicle: Klucel (hydroxypropylcellulose) (HPC)
[3] = dose: 400.0 mg/kg/injection, schedule: Q04DX003 (ip), vehicle: Klucel (hydroxypropylcellulose) (HPC)
[4] = dose: 100.0 mg/kg/injection, schedule: Q01DX001 (ip), vehicle: saline
[5] = dose: 200.0 mg/kg/injection, schedule: Q01DX001 (ip), vehicle: saline
[6] = dose: 400.0 mg/kg/injection, schedule: Q01DX001 (ip), vehicle: saline
[7] = dose: 100.0 mg/kg/injection, schedule: Q04DX003 (ip), vehicle: saline with Tween-80
[8] = dose: 200.0 mg/kg/injection, schedule: Q04DX003 (ip), vehicle: saline with Tween-80
[9] = dose: 400.0 mg/kg/injection, schedule: Q04DX003 (ip), vehicle: saline with Tween-80
[10] = dose: 100.0 mg/kg/injection, schedule: Q01DX001 (ip), vehicle: carboxymethylcellulose (CMC)
[11] = dose: 200.0 mg/kg/injection, schedule: Q01DX001 (ip), vehicle: carboxymethylcellulose (CMC)
[12] = dose: 400.0 mg/kg/injection, schedule: Q01DX001 (ip), vehicle: carboxymethylcellulose (CMC)

Measured: T/C

COc1cc2c(c(OC)c1OC)-c1ccc(N)c(=O)cc1[C@@H](NC(C)=O)CC2
inactive: dose: 0.5 mg/kg/injection, schedule: Q01DX015 (ip), vehicle: saline 116 % of control | dose: 1.0 mg/kg/injection, schedule: Q01DX015 (ip), vehicle: saline 118 % of control | dose: 2.0 mg/kg/injection, schedule: Q01DX001 (ip), vehicle: saline 112 % of control | dose: 2.0 mg/kg/injection, schedule: Q01DX015 (ip), vehicle: saline 92 % of control | dose: 4.0 mg/kg/injection, schedule: Q01DX001 (ip), vehicle: saline 100 % of control | dose: 4.0 mg/kg/injection, schedule: Q01DX015 (ip), vehicle: saline 116 % of control | dose: 8.0 mg/kg/injection, schedule: Q01DX001 (ip), vehicle: saline 98 % of control | dose: 16.0 mg/kg/injection, schedule: Q01DX001 (ip), vehicle: saline 104 % of control

CCCCN(CCCC)CC(O)c1cc2ccc(Cl)cc2nc1-c1ccc(Cl)cc1 (stereo not drawn)
inactive: [1] 100 % of control | [2] 96 % of control | [3] 102 % of control

CCCCCC(=O)OCCOC(=O)CCCCC
inactive: dose: 100.0 mg/kg/injection, schedule: Q01DX009 (ip), vehicle: saline with Tween-80 103 % of control | dose: 200.0 mg/kg/injection, schedule: Q01DX009 (ip), vehicle: saline with Tween-80 101 % of control | dose: 400.0 mg/kg/injection, schedule: Q01DX009 (ip), vehicle: saline with Tween-80 92 % of control

Cc1ccc(C(O)C(=O)O)cc1 (stereo not drawn)
inactive: dose: 75.0 mg/kg/injection, schedule: Q01DX001 (ip), vehicle: acetone 100 % of control | dose: 150.0 mg/kg/injection, schedule: Q01DX001 (ip), vehicle: acetone 96 % of control

CNc1nc(N)nc2c1nc(Cl)n2C1OC(CO)C(O)C1O (stereo not drawn)
inactive: [4] 100 % of control | [5] 92 % of control | [6] 96 % of control

CC1CN=C(c2ccc(NC(=O)c3ccc(C(=O)Nc4ccc(C5=NCC(C)CN5)cc4)cc3)cc2)NC1 (stereo not drawn)
inactive: dose: 0.12 mg/kg/injection, schedule: Q01DX015 (ip), vehicle: water 100 % of control | dose: 0.25 mg/kg/injection, schedule: Q01DX015 (ip), vehicle: water 102 % of control | dose: 0.5 mg/kg/injection, schedule: Q01DX015 (ip), vehicle: water 104 % of control | dose: 1.0 mg/kg/injection, schedule: Q01DX015 (ip), vehicle: water 104 % of control | dose: 2.0 mg/kg/injection, schedule: Q01DX015 (ip), vehicle: water 122 % of control | dose: 4.0 mg/kg/injection, schedule: Q01DX015 (ip), vehicle: water 114 % of control

CN(CCNC(=O)Nc1ccccc1)c1ccccc1
inactive: dose: 100.0 mg/kg/injection, schedule: Q01DX009 (ip), vehicle: Klucel (hydroxypropylcellulose) (HPC) 101 % of control | dose: 200.0 mg/kg/injection, schedule: Q01DX009 (ip), vehicle: Klucel (hydroxypropylcellulose) (HPC) 97 % of control | dose: 400.0 mg/kg/injection, schedule: Q01DX009 (ip), vehicle: Klucel (hydroxypropylcellulose) (HPC) 105 % of control

COc1ccc(NC(=S)/C(=C(/[O-])c2ccc(C)cc2)[n+]2ccccc2)cc1
inactive: dose: 100.0 mg/kg/injection, schedule: Q01DX001 (ip), vehicle: saline with Tween-80 92 % of control | dose: 100.0 mg/kg/injection, schedule: Q04DX002 (ip), vehicle: saline with Tween-80 95 % of control and 96 % of control | [7] 105 % of control and 108 % of control and 90 % of control | dose: 200.0 mg/kg/injection, schedule: Q01DX001 (ip), vehicle: saline with Tween-80 102 % of control | dose: 200.0 mg/kg/injection, schedule: Q04DX002 (ip), vehicle: saline with Tween-80 97 % of control and 110 % of control | [8] 93 % of control and 98 % of control and 105 % of control | dose: 400.0 mg/kg/injection, schedule: Q01DX001 (ip), vehicle: saline with Tween-80 94 % of control | dose: 400.0 mg/kg/injection, schedule: Q04DX002 (ip), vehicle: saline with Tween-80 98 % of control and 104 % of control | [9] 93 % of control and 95 % of control and 91 % of control

CCC1NC(C)(C)CC1=C(C)C (stereo not drawn)
inactive: dose: 3.13 mg/kg/injection, schedule: Q01DX009 (ip), vehicle: saline 101 % of control | dose: 6.25 mg/kg/injection, schedule: Q01DX009 (ip), vehicle: saline 96 % of control | dose: 12.5 mg/kg/injection, schedule: Q01DX009 (ip), vehicle: saline 96 % of control

NC(=S)NN=C1CCCCCCCCCCC1
inactive: dose: 50.0 mg/kg/injection, schedule: Q01DX001 (ip), vehicle: carboxymethylcellulose (CMC) 106 % of control | [10] 98 % of control | [11] 95 % of control | [12] 88 % of control

Cc1c(C)c([N+](=O)[O-])c(I)c(C)c1[N+](=O)[O-]
inactive: dose: 75.0 mg/kg/injection, schedule: Q01DX009 (ip), vehicle: Klucel (hydroxypropylcellulose) (HPC) 98 % of control | dose: 75.0 mg/kg/injection, schedule: Q04DX003 (ip), vehicle: Klucel (hydroxypropylcellulose) (HPC) 102 % of control | dose: 150.0 mg/kg/injection, schedule: Q01DX009 (ip), vehicle: Klucel (hydroxypropylcellulose) (HPC) 98 % of control | dose: 150.0 mg/kg/injection, schedule: Q04DX003 (ip), vehicle: Klucel (hydroxypropylcellulose) (HPC) 102 % of control | dose: 300.0 mg/kg/injection, schedule: Q01DX009 (ip), vehicle: Klucel (hydroxypropylcellulose) (HPC) 97 % of control | dose: 300.0 mg/kg/injection, schedule: Q04DX003 (ip), vehicle: Klucel (hydroxypropylcellulose) (HPC) 98 % of control

NC(=O)/C=C/c1ccc([N+](=O)[O-])cc1
inactive: [1] 97 % of control | [2] 100 % of control | [3] 97 % of control

N=C(N)SCCCCSC(=N)N
inactive: dose: 25.0 mg/kg/injection, schedule: Q01DX009 (ip), vehicle: saline 92 % of control | dose: 50.0 mg/kg/injection, schedule: Q01DX009 (ip), vehicle: saline 97 % of control | dose: 100.0 mg/kg/injection, schedule: Q01DX009 (ip), vehicle: saline 94 % of control and 106 % of control

CC1(C)CC(=O)C2=C(C1)OC1=C(C(=O)CC(C)(C)C1)C2c1ccccc1[N+](=O)[O-]
inactive: [7] 98 % of control | [8] 88 % of control | [9] 97 % of control

CC(=O)c1ccc[n+](Cc2ccc([N+](=O)[O-])cc2)c1
inactive: dose: 100.0 mg/kg/injection, schedule: Q04DX003 (ip), vehicle: saline sonified 98 % of control

COC1c2c(nc3ccccc3c2C(N)=O)-c2ccccc2C1(C)C (stereo not drawn)
inactive: dose: 100.0 mg/kg/injection, schedule: Q04DX003 (ip), vehicle: saline 89 % of control | dose: 200.0 mg/kg/injection, schedule: Q04DX003 (ip), vehicle: saline 103 % of control | dose: 400.0 mg/kg/injection, schedule: Q04DX003 (ip), vehicle: saline 94 % of control

CCC(Cl)COP(=O)(OCC(Cl)CC)C(CC)CCl (stereo not drawn)
inactive: [10] 93 % of control | dose: 100.0 mg/kg/injection, schedule: Q01DX009 (ip), vehicle: carboxymethylcellulose (CMC) 98 % of control and 91 % of control | dose: 100.0 mg/kg/injection, schedule: Q04DX002 (ip), vehicle: carboxymethylcellulose (CMC) 94 % of control and 95 % of control | dose: 100.0 mg/kg/injection, schedule: Q04DX003 (ip), vehicle: carboxymethylcellulose (CMC) 101 % of control | [11] 96 % of control | dose: 200.0 mg/kg/injection, schedule: Q01DX009 (ip), vehicle: carboxymethylcellulose (CMC) 94 % of control and 103 % of control | dose: 200.0 mg/kg/injection, schedule: Q04DX002 (ip), vehicle: carboxymethylcellulose (CMC) 95 % of control and 102 % of control | dose: 200.0 mg/kg/injection, schedule: Q04DX003 (ip), vehicle: carboxymethylcellulose (CMC) 96 % of control | [12] 96 % of control | dose: 400.0 mg/kg/injection, schedule: Q01DX009 (ip), vehicle: carboxymethylcellulose (CMC) 105 % of control and 106 % of control | dose: 400.0 mg/kg/injection, schedule: Q04DX002 (ip), vehicle: carboxymethylcellulose (CMC) 94 % of control and 95 % of control | dose: 400.0 mg/kg/injection, schedule: Q04DX003 (ip), vehicle: carboxymethylcellulose (CMC) 98 % of control

C(=C/c1ccnc(/C=C/c2ccccc2)c1)/c1ccccc1
inactive: dose: 25.0 mg/kg/injection, schedule: Q01DX009 (ip), vehicle: acetone 97 % of control and 99 % of control | dose: 50.0 mg/kg/injection, schedule: Q01DX009 (ip), vehicle: acetone 87 % of control | [4] 91 % of control | dose: 100.0 mg/kg/injection, schedule: Q01DX009 (ip), vehicle: acetone 89 % of control and 92 % of control | dose: 100.0 mg/kg/injection, schedule: Q04DX003 (ip), vehicle: acetone 94 % of control | [5] 94 % of control | dose: 200.0 mg/kg/injection, schedule: Q04DX003 (ip), vehicle: acetone 86 % of control | [6] 94 % of control

From PubChem BioAssay AID248 (DTP/NCI, 2004)
